{
  "source": "patent EP0906100B1",
  "about": "“USE OF 5-HT 1A? RECEPTOR ANTAGONISTS FOR THE TREATMENT OF URINARY INCONTINENCE” (RECORDATI S.A., priority 1996, dated 1997)",
  "test_system": "rhythmic bladder voiding contractions",
  "experiment": "Volume-induced rhythmic bladder voiding contractions in anaesthetized rats",
  "type": "in vivo",
  "conditions": "for AMPLITUDE mm Hg before treatment / FREQUENCY No. contr./15 min before treatment: baseline; for AMPLITUDE mm Hg before treatment / AMPLITUDE mm Hg after treatment: animals with frequency reduction <50%; for AMPLITUDE mm Hg before treatment / FREQUENCY No. contr./15 min before treatment / AMPLITUDE mm Hg after treatment / FREQUENCY No. contr./15 min after treatment: mean±S.E.; for BLADDER CONTRACTIONS Disappearance time: duration of bladder quiescence, mean (S.E. in next cell)",
  "protocol": "Female Sprague Dawley rats weighing 225-275 g (Crl: CD° BR, Charles River Italia) were used. The animals were housed with free access to food and water and were maintained on a forced 12 h alternating light-dark cycle at 22-24°C for at least one week, except during the experiment. The activity on the rhythmic bladder voiding contractions was evaluated according to the method of Dray (J. Pharmcol. Methods, 13:157, 1985), with some modifications as in Guarneri (Phannacol. Res., 27:173, 1993). […] The catheter was tied in place with a ligature around the external urethral orifice and was connected with conventional pressure transducers (Statham P23 ID/P23 XL). […] The bladder was then filled via the recording catheter by incremental volumes of warm (37°C) saline until reflex bladder voiding contractions occurred (usually 0.8-1.5 ml). Two parameters were recorded from the cystometrogram: the frequency of voiding contractions, calculated by counting the number of peaks/15 min of observation, and the mean amplitude of these contractions (mean height of the peaks in mmHg) in the same time period. For intravenous (i. v. ) injection of bioactive compounds, a PE 50 polyethylene tubing filled with physiological saline was inserted into the jugular vein.\nBioactivity was assessed in individual animals (using 6-10 rats per dose), by recording the number and height of the peaks for 15 min after drug injection and comparing them with those previously recorded for 15 min after the intravenous administration of vehicle alone. […] The statistical significance of changes in frequency and amplitude before and after treatment was assessed by Student's t test for paired data. Changes showing a probability P<0.01 were considered significant.\nAn all-or-none criterion was also used to compare bioactivity in terms of ED50 values. Rats showing a treatment-related change of ≥30% relative to the basal value were considered to be positive. Quantal dose-response curves and ED50 values were evaluated by the method of Bliss (J. Pharm. Pharmacol., 11:192, 1938).\nThe rapid distension of the urinary bladder in urethane-anaesthetized rats produced a series of rhythmic bladder voiding contractions whose characteristics have been described (Maggie et al., Brain Res., 380, 83, 1986; Maggi, et al., J. Pharmacol. Exp. Ther., 230, 500, 1984). The frequency of these contractions is related to the sensory afferent arm of reflex micturition and to the integrity of the micturition centre, while their amplitude is a property of the efferent arm of the reflex (Maggi et al., J. Pharmacol. Meth., 15, 157, 1986; Maggi et al., Brain Res.. 415, 1, 1987; Maggi et al., Naun. Schmied. Arch. Pharmacol., 332, 276, 1986; Maggi et al., J. Urol., 136, 696, 1986).",
  "data": [
    {"smiles": "COc1ccccc1N1CCN(CCN(C(=O)C2CCCCC2)c2ccccn2)CC1", "note": "[Compound A, N-{2-[4-(2-methoxyphenyl)-1-piperazinyl]-ethyl}-N-(2-pyridyl)-cyclohexanecarboxamide]", "values": [
      {"measurement": "AMPLITUDE mm Hg before treatment", "setting": "1 µg/kg i.v. group", "result": "25.4±2.0", "unit": "mm Hg"},
      {"measurement": "FREQUENCY No. contr./15 min before treatment", "setting": "1 µg/kg i.v. group", "result": "11.7±1.0", "unit": "No. contr./15 min"},
      {"measurement": "AMPLITUDE mm Hg after treatment", "setting": "1 µg/kg i.v.", "result": "23.1±1.9", "unit": "mm Hg"},
      {"measurement": "BLADDER CONTRACTIONS Disappearance time", "setting": "1 µg/kg i.v.", "result": 1.34, "unit": "min"},
      {"measurement": "FREQUENCY No. contr./15 min after treatment", "setting": "1 µg/kg i.v.", "result": "11.6±1.3", "unit": "No. contr./15 min"},
      {"measurement": "AMPLITUDE mm Hg before treatment", "setting": "3 µg/kg i.v. group", "result": "25.1±2.2", "unit": "mm Hg"},
      {"measurement": "FREQUENCY No. contr./15 min before treatment", "setting": "3 µg/kg i.v. group", "result": "11.5±0.7", "unit": "No. contr./15 min"},
      {"measurement": "AMPLITUDE mm Hg after treatment", "setting": "3 µg/kg i.v.", "result": "21.7±2.0", "unit": "mm Hg"},
      {"measurement": "BLADDER CONTRACTIONS Disappearance time", "setting": "3 µg/kg i.v.", "result": 2.15, "unit": "min"},
      {"measurement": "FREQUENCY No. contr./15 min after treatment", "setting": "3 µg/kg i.v.", "result": "9.1±1.0", "unit": "No. contr./15 min"},
      {"measurement": "AMPLITUDE mm Hg before treatment", "setting": "10 µg/kg i.v. group", "result": "26.0±3.8", "unit": "mm Hg"},
      {"measurement": "FREQUENCY No. contr./15 min before treatment", "setting": "10 µg/kg i.v. group", "result": "11.5±1.5", "unit": "No. contr./15 min"},
      {"measurement": "AMPLITUDE mm Hg after treatment", "setting": "10 µg/kg i.v.", "result": "22.3±3.8", "unit": "mm Hg"},
      {"measurement": "BLADDER CONTRACTIONS Disappearance time", "setting": "10 µg/kg i.v.", "result": 8.13, "unit": "min"},
      {"measurement": "FREQUENCY No. contr./15 min after treatment", "setting": "10 µg/kg i.v.", "result": "5.9±1.6", "unit": "No. contr./15 min"},
      {"measurement": "AMPLITUDE mm Hg before treatment", "setting": "30 µg/kg i.v. group", "result": "28.5±2.5", "unit": "mm Hg"},
      {"measurement": "FREQUENCY No. contr./15 min before treatment", "setting": "30 µg/kg i.v. group", "result": "11.8±0.7", "unit": "No. contr./15 min"},
      {"measurement": "AMPLITUDE mm Hg after treatment", "setting": "30 µg/kg i.v.", "result": "25.0±4.0", "unit": "mm Hg"},
      {"measurement": "BLADDER CONTRACTIONS Disappearance time", "setting": "30 µg/kg i.v.", "result": 8.87, "unit": "min"},
      {"measurement": "FREQUENCY No. contr./15 min after treatment", "setting": "30 µg/kg i.v.", "result": "3.8±0.7", "unit": "No. contr./15 min"},
      {"measurement": "AMPLITUDE mm Hg before treatment", "setting": "100 µg/kg i.v. group", "result": "28.0±4.6", "unit": "mm Hg"},
      {"measurement": "FREQUENCY No. contr./15 min before treatment", "setting": "100 µg/kg i.v. group", "result": "12.0±0.9", "unit": "No. contr./15 min"},
      {"measurement": "AMPLITUDE mm Hg after treatment", "setting": "100 µg/kg i.v.", "result": "25.7±2.9", "unit": "mm Hg"},
      {"measurement": "BLADDER CONTRACTIONS Disappearance time", "setting": "100 µg/kg i.v.", "result": 12.56, "unit": "min"},
      {"measurement": "FREQUENCY No. contr./15 min after treatment", "setting": "100 µg/kg i.v.", "result": "4.1±1.1", "unit": "No. contr./15 min"},
      {"measurement": "FREQUENCY No. contr./15 min before treatment", "setting": "300 µg/kg i.v. group", "result": "9.5±0.6", "unit": "No. contr./15 min"},
      {"measurement": "BLADDER CONTRACTIONS Disappearance time", "setting": "300 µg/kg i.v.", "result": 13.37, "unit": "min"},
      {"measurement": "FREQUENCY No. contr./15 min after treatment", "setting": "300 µg/kg i.v.", "result": "2.2±0.5", "unit": "No. contr./15 min"},
      {"measurement": "ED (10 min disappearance of contractions)", "setting": "Rattus norvegicus, iv, 10 min, extrapolated dose inducing 10 min of disappearance of the contractions, linear regression", "result": 0.037, "unit": "mg/kg"},
      {"measurement": "maximal change of amplitude of the rhythmic bladder voidings", "setting": "i.v., no dose-dependence observed", "result": "about 13%"}
    ]},
    {"smiles": "CCN(CC)CC#CCOC(=O)C(O)(c1ccccc1)C1CCCCC1", "note": "(stereo not drawn) [Oxybutynin, oxybutynin]", "values": [
      {"measurement": "AMPLITUDE mm Hg before treatment", "setting": "30 µg/kg i.v. group", "result": "26.7±2.7", "unit": "mm Hg"},
      {"measurement": "FREQUENCY No. contr./15 min before treatment", "setting": "30 µg/kg i.v. group", "result": "14.8±1.9", "unit": "No. contr./15 min"},
      {"measurement": "AMPLITUDE mm Hg after treatment", "setting": "30 µg/kg i.v.", "result": "23.3±2.5", "unit": "mm Hg"},
      {"measurement": "FREQUENCY No. contr./15 min after treatment", "setting": "30 µg/kg i.v.", "result": "15.5±2.3", "unit": "No. contr./15 min"},
      {"measurement": "AMPLITUDE mm Hg before treatment", "setting": "100 µg/kg i.v. group", "result": "25.0±3.7", "unit": "mm Hg"},
      {"measurement": "FREQUENCY No. contr./15 min before treatment", "setting": "100 µg/kg i.v. group", "result": "13.3±1.1", "unit": "No. contr./15 min"},
      {"measurement": "AMPLITUDE mm Hg after treatment", "setting": "100 µg/kg i.v.", "result": "18.7±2.7", "unit": "mm Hg"},
      {"measurement": "FREQUENCY No. contr./15 min after treatment", "setting": "100 µg/kg i.v.", "result": "14.7±1.0", "unit": "No. contr./15 min"},
      {"measurement": "AMPLITUDE mm Hg before treatment", "setting": "300 µg/kg i.v. group", "result": "20.9±1.7", "unit": "mm Hg"},
      {"measurement": "FREQUENCY No. contr./15 min before treatment", "setting": "300 µg/kg i.v. group", "result": "10.1±0.7", "unit": "No. contr./15 min"},
      {"measurement": "AMPLITUDE mm Hg after treatment", "setting": "300 µg/kg i.v.", "result": "13.6±0.8", "unit": "mm Hg"},
      {"measurement": "FREQUENCY No. contr./15 min after treatment", "setting": "300 µg/kg i.v.", "result": "8.8±0.8", "unit": "No. contr./15 min"},
      {"measurement": "AMPLITUDE mm Hg before treatment", "setting": "1000 µg/kg i.v. group", "result": "20.3±2.4", "unit": "mm Hg"},
      {"measurement": "FREQUENCY No. contr./15 min before treatment", "setting": "1000 µg/kg i.v. group", "result": "9.7±0.8", "unit": "No. contr./15 min"},
      {"measurement": "AMPLITUDE mm Hg after treatment", "setting": "1000 µg/kg i.v.", "result": "11.8±1.2", "unit": "mm Hg"},
      {"measurement": "FREQUENCY No. contr./15 min after treatment", "setting": "1000 µg/kg i.v.", "result": "9.5±0.8", "unit": "No. contr./15 min"},
      {"measurement": "AMPLITUDE mm Hg before treatment", "setting": "3000 µg/kg i.v. group", "result": "18.0±1.4", "unit": "mm Hg"},
      {"measurement": "FREQUENCY No. contr./15 min before treatment", "setting": "3000 µg/kg i.v. group", "result": "10.0±0.7", "unit": "No. contr./15 min"},
      {"measurement": "AMPLITUDE mm Hg after treatment", "setting": "3000 µg/kg i.v.", "result": "10.8±1.0", "unit": "mm Hg"},
      {"measurement": "FREQUENCY No. contr./15 min after treatment", "setting": "3000 µg/kg i.v.", "result": "9.9±1.5", "unit": "No. contr./15 min"},
      {"measurement": "ED50", "setting": "Rattus norvegicus, iv, read-out: ED50 AMPLITUDE (and 95% confidence limits)", "result": 0.24, "unit": "mg/kg"}
    ]}
  ]
}
